Measurements taken from PubChem BioAssay AID588580 (Sanford-Burnham Center for Chemical Genomics, 2011).
The source made the active and inactive calls.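 How the source made its calls: active means mean EC50 of 20 µM or lower; inactive means the rest.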

What follows are compounds tested against CHO XBP1-luciferase reporter, UPR activation, luminescence (assay: activators of UPR IRE1-XBP1 adaptive arm, SAR follow-up, cell-based, luciferase luminescence, set 2 (AID 588580)).

EC50	Structure (SMILES)
> 80 µM (inactive)	Cc1cc(Br)cc(NC(=O)c2cc(-c3ccncc3)nc3ccccc23)c1
> 80 µM (inactive)	O=C(Nc1ccc(Br)c(C(F)(F)F)c1)c1cc(-c2ccncc2)nc2ccccc12
inactive	O=C(Nc1ccc(F)c(F)c1)c1cc(-c2ccncc2)nc2ccccc12
> 80 µM (inactive)	O=C(Nc1ccccc1Br)c1cc(-c2ccncc2)nc2ccccc12
> 80 µM (inactive)	Cc1cc(NC(=O)c2cc(-c3ccncc3)nc3ccccc23)ccc1F
> 80 µM (inactive)	O=C(Nc1cccc(F)c1F)c1cc(-c2ccncc2)nc2ccccc12
> 80 µM (inactive)	Cc1cccc(NC(=O)c2cc(-c3ccncc3)nc3ccccc23)c1

More lines, now with the values behind:

Structure (SMILES)	EC50
Cc1cc(NC(=O)c2cc(-c3ccncc3)nc3ccccc23)ccc1Cl	inactive
O=C(Nc1cccc(F)c1Br)c1cc(-c2ccncc2)nc2ccccc12	> 80 µM (inactive)
O=C(Nc1cccc(F)c1)c1cc(-c2ccncc2)nc2ccccc12	inactive
Cc1cc(NC(=O)c2cc(-c3ccccc3)nc3ccccc23)ccc1Br	> 80 µM (inactive)
O=C(Nc1cccc(Br)c1)c1cc(-c2ccncc2)nc2ccccc12	> 80 µM (inactive)
COc1cccc(NC(=O)c2cc(-c3ccncc3)nc3ccccc23)c1	> 80 µM (inactive)
O=C(Nc1ccc(C(F)(F)F)cc1)c1cc(-c2ccncc2)nc2ccccc12	2.2 µM
O=C(Nc1ccc(F)cc1)c1cc(-c2ccncc2)nc2ccccc12	inactive
O=C(Nc1cc(F)ccc1F)c1cc(-c2ccncc2)nc2ccccc12	> 80 µM (inactive)
Cc1ccc(NC(=O)c2cc(-c3ccncc3)nc3ccccc23)cc1	13.4 µM
O=C(Nc1ccc(Cl)cc1)c1cc(-c2ccncc2)nc2ccccc12	8.42 µM
O=C(Nc1cccc(C(F)(F)F)c1)c1cc(-c2ccncc2)nc2ccccc12	> 80 µM (inactive)
O=C(Nc1cccc(Cl)c1)c1cc(-c2ccncc2)nc2ccccc12	> 80 µM (inactive)
